In PubChem BioAssay (NCI) one finds GI50 and TGI data, which are given here for eight molecules.

Among the test systems are SK-MEL-2 melanoma; UACC-257 melanoma; SR leukemia; OVCAR-3 ovarian; OVCAR-8 ovarian; IGROV1 ovarian; OVCAR-5 ovarian; OVCAR-4 ovarian; SF-539 CNS; SK-OV-3 ovarian.
Common to all, as to assay: NCI anticancer screen, dose series, 48 h

“And” between values parts separate entries of the source, which are not always exact repeats. Equal entries are not always repeated.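 Step 1: Grow cells in 96-well plates. Step 2: Expose to compound for 48 hours at 5 concentrations. Step 3: Interpolate endpoints linearly; if unreached, use highest concentration. GI50 marks 50% less growth. TGI: concentration producing complete growth inhibition.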

Regarding `CNc1ccc(-c2cc(=O)oc3ccc(Cl)cc23)cc1`, the GI50 in the experiment on SK-MEL-2 melanoma is 0.215 µM and 0.0294 µM; in the experiment on UACC-257 melanoma it was more than 100 µM; with SR leukemia, 0.0463 µM; with OVCAR-3 ovarian, 0.0342 µM; with OVCAR-8 ovarian, 0.601 µM and 0.197 µM; with OVCAR-5 ovarian it was 0.795 µM and 0.457 µM. Besides, the GI50 in the experiment on SF-539 CNS was 0.0527 µM and 0.0255 µM; in the experiment on SK-OV-3 ovarian, 0.218 µM and 0.107 µM. Moreover, the TGI in the experiment with SK-MEL-2 melanoma is 0.0932 µM; with UACC-257 melanoma, more than 100 µM; in the experiment with OVCAR-3 ovarian it was 0.27 µM; in the experiment on OVCAR-8 ovarian it was more than 100 µM; with IGROV1 ovarian, more than 100 µM; in the experiment on OVCAR-5 ovarian, more than 100 µM. Moreover, the TGI in the experiment on OVCAR-4 ovarian was more than 100 µM; with SF-539 CNS, 0.481 µM and 0.109 µM; in the experiment with SK-OV-3 ovarian it was more than 100 µM.

Regarding `N#Cc1c(-c2ccccc2)cc(-c2ccccc2)n(CCCCC(=O)NO)c1=O`, the GI50 with SK-MEL-2 melanoma is 3.21 µM; in the experiment with UACC-257 melanoma it was 2.15 µM; with SR leukemia, 1.32 µM; in the experiment with OVCAR-3 ovarian, 2.26 µM; in the experiment with OVCAR-8 ovarian, 2.16 µM; in the experiment on IGROV1 ovarian, 2.48 µM. Moreover, the GI50 was 2.6 µM in the experiment on OVCAR-5 ovarian, 2.74 µM in the experiment on OVCAR-4 ovarian, 2.51 µM in the experiment with SF-539 CNS and 2.06 µM in the experiment on SK-OV-3 ovarian. Besides, the TGI in the experiment with SK-MEL-2 melanoma worked out at 14.1 µM; in the experiment with UACC-257 melanoma, 12.4 µM; in the experiment with SR leukemia, 8.37 µM; in the experiment with OVCAR-3 ovarian, 7.49 µM; with OVCAR-8 ovarian, 14 µM; with IGROV1 ovarian, 9.34 µM. Also, the TGI in the experiment with OVCAR-5 ovarian amounted to 10.9 µM; in the experiment with OVCAR-4 ovarian it was 16.5 µM; in the experiment with SF-539 CNS, 10.4 µM; in the experiment on SK-OV-3 ovarian, 5 µM.

Consider `CCOC(=O)C1=C(C)NC(=O)NC1c1coc2cc(C)cc(C)c2c1=O` (configuration not stated), for which the TGI was 99.5 µM with SK-MEL-2 melanoma; more than 100 µM in the experiment on UACC-257 melanoma; more than 79.8 µM with SR leukemia; more than 70.5 µM with OVCAR-3 ovarian; more than 100 µM in the experiment with OVCAR-8 ovarian; more than 100 µM in the experiment on IGROV1 ovarian. Moreover, the TGI in the experiment with OVCAR-5 ovarian, in the experiment on OVCAR-4 ovarian, in the experiment with SF-539 CNS and in the experiment on SK-OV-3 ovarian was more than 100 µM in each case.

In the case of `COc1ccc(-c2cc(/C=C3\C(=O)Nc4ccc(OC)cc43)[nH]n2)cc1`, the GI50 in the experiment on SK-MEL-2 melanoma is 43.5 µM; in the experiment on UACC-257 melanoma, more than 100 µM; with SR leukemia, 0.595 µM; in the experiment on OVCAR-3 ovarian, 68.9 µM; with OVCAR-8 ovarian, 19.5 µM; with IGROV1 ovarian it was more than 100 µM. Moreover, the GI50 was more than 100 µM with OVCAR-5 ovarian, more than 100 µM with OVCAR-4 ovarian, 6.67 µM in the experiment on SF-539 CNS and 73.2 µM in the experiment on SK-OV-3 ovarian. In addition, the TGI with SK-MEL-2 melanoma, in the experiment on UACC-257 melanoma, with SR leukemia, with OVCAR-3 ovarian, in the experiment with OVCAR-8 ovarian and in the experiment with IGROV1 ovarian was more than 100 µM each time. Moreover, the TGI in the experiment with OVCAR-5 ovarian, in the experiment with OVCAR-4 ovarian, in the experiment on SF-539 CNS and in the experiment with SK-OV-3 ovarian was more than 100 µM throughout.

`Clc1ccc(-c2nn3ncccc3c2-c2ccnc(Nc3ccccc3)n2)cc1`: the GI50 with SK-MEL-2 melanoma is 24.4 µM; in the experiment on UACC-257 melanoma it was more than 15.1 µM; in the experiment with SR leukemia it was 7.66 µM; in the experiment with OVCAR-3 ovarian, 5.92 µM; with OVCAR-8 ovarian, 11.8 µM; with IGROV1 ovarian it was 2.29 µM. For the same molecule, the GI50 in the experiment on OVCAR-5 ovarian is 11.9 µM; with OVCAR-4 ovarian, 9.6 µM; with SF-539 CNS it was more than 14.2 µM; in the experiment on SK-OV-3 ovarian it was 6.55 µM. The TGI with SK-MEL-2 melanoma was more than 25 µM; in the experiment on UACC-257 melanoma it was more than 25 µM; with SR leukemia it was more than 25 µM; in the experiment on OVCAR-3 ovarian it was more than 25 µM; with OVCAR-8 ovarian, more than 25 µM; in the experiment with IGROV1 ovarian, more than 22 µM. Moreover, the TGI in the experiment with OVCAR-5 ovarian, in the experiment with OVCAR-4 ovarian, in the experiment on SF-539 CNS and with SK-OV-3 ovarian was more than 25 µM each time.

`CCCN(CCC)CCCNC(=O)c1cc2c(-c3ccc(OC)c(OC)c3)nn(C)c2s1`: the GI50 is 25.2 µM in the experiment with SK-MEL-2 melanoma; 17.3 µM in the experiment on UACC-257 melanoma; 11.9 µM with SR leukemia; 21.5 µM in the experiment on OVCAR-3 ovarian; 36.9 µM in the experiment on OVCAR-8 ovarian; 43.3 µM with IGROV1 ovarian. Further, the GI50 in the experiment with OVCAR-5 ovarian was 50.4 µM; with OVCAR-4 ovarian it was 23.5 µM; in the experiment with SF-539 CNS, 16 µM; in the experiment with SK-OV-3 ovarian, 44.3 µM. Moreover, the TGI in the experiment with SK-MEL-2 melanoma is 72.9 µM; with UACC-257 melanoma it was 34.4 µM; with SR leukemia, 58.9 µM; with OVCAR-3 ovarian, more than 100 µM; with OVCAR-8 ovarian, more than 100 µM; in the experiment with IGROV1 ovarian it was more than 100 µM. Besides, the TGI in the experiment on OVCAR-5 ovarian was more than 100 µM; with OVCAR-4 ovarian it was more than 100 µM; in the experiment with SF-539 CNS, 31.1 µM; in the experiment with SK-OV-3 ovarian, more than 100 µM.

For the molecule `CC1(C)CC2C=C(C=O)C3(C=O)CC3(C)C2C1` (configuration not stated), the TGI in the experiment with SK-MEL-2 melanoma is 4.45 µM; with UACC-257 melanoma it was 7.11 µM; with SR leukemia, 2.45 µM; in the experiment with OVCAR-3 ovarian, 2.27 µM; in the experiment with OVCAR-8 ovarian, 6.1 µM; in the experiment on IGROV1 ovarian, 4.68 µM. Besides, the TGI is 4.14 µM with OVCAR-5 ovarian, 3.22 µM with OVCAR-4 ovarian, 3.51 µM in the experiment on SF-539 CNS and 16.2 µM in the experiment on SK-OV-3 ovarian.

As for `O=C(c1cccs1)c1c(C(F)(F)F)n([O-])c2ccc(F)cc2[n+]1=O`, the GI50 with SK-MEL-2 melanoma is 0.841 µM; with UACC-257 melanoma, 1.53 µM; in the experiment on SR leukemia it was 0.148 µM; in the experiment on OVCAR-3 ovarian, 0.793 µM; in the experiment on OVCAR-8 ovarian it was 0.528 µM; in the experiment on IGROV1 ovarian it was 0.279 µM. The GI50 was 1.76 µM in the experiment with OVCAR-5 ovarian, 1.41 µM in the experiment on OVCAR-4 ovarian, 1.67 µM in the experiment on SF-539 CNS and 1.85 µM in the experiment on SK-OV-3 ovarian. Further, the TGI was 2.37 µM in the experiment on SK-MEL-2 melanoma; 2.91 µM in the experiment on UACC-257 melanoma; 0.558 µM in the experiment on SR leukemia; 2.35 µM in the experiment with OVCAR-3 ovarian; 1.34 µM in the experiment with OVCAR-8 ovarian; 1.49 µM in the experiment with IGROV1 ovarian. The TGI in the experiment on OVCAR-5 ovarian was 3.21 µM; with OVCAR-4 ovarian, 2.75 µM; with SF-539 CNS, 3.47 µM; with SK-OV-3 ovarian it was 3.59 µM.
